These compounds were tested against T1, recombinant GST-p110y (Homo sapiens, UniProt P48736) (assay: in vitro PI3Kγ kinase assay (Scintillation Proximity Assay, transfer of terminal phosphate of ATP to phosphatidylinositol)). Conditions: 12.5 µM ATP, 15 µg/ml phosphatidylinositol, room temperature, 60 minutes.
T1 construct: Residues 38-1102 of human P13Ky are subcloned into the BamH1 and EcoR1 sites; made in house; host or cells: Sf9 (Spodoptera frugiperda) insect cells, baculovirus
T1 sequence (P48736 38-1102): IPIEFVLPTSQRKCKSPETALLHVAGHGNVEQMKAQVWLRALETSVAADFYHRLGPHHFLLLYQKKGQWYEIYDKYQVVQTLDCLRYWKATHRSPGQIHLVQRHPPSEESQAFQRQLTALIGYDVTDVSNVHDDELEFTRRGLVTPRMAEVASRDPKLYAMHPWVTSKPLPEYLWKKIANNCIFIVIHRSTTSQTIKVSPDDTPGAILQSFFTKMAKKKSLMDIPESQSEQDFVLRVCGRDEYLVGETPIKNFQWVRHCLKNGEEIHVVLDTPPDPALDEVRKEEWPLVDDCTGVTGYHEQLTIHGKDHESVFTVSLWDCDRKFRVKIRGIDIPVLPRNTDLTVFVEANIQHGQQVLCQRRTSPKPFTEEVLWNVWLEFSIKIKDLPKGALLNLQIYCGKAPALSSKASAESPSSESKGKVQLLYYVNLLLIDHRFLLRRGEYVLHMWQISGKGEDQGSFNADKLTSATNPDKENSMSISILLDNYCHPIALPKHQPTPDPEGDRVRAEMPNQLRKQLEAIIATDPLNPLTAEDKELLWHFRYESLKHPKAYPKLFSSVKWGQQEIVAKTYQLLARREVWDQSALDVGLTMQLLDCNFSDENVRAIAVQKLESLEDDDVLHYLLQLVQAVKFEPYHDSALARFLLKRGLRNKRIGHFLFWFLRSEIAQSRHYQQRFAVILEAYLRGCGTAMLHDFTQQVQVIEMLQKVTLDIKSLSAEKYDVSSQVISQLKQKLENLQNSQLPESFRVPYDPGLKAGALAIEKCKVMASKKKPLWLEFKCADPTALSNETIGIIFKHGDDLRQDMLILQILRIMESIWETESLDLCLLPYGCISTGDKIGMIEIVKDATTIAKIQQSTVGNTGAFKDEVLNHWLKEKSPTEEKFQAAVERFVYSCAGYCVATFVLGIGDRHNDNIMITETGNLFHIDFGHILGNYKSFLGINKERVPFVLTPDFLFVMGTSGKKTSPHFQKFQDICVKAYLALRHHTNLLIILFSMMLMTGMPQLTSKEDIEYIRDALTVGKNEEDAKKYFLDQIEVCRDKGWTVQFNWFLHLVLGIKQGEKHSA
Assay type: biochemical
Protocol: To express the recombinant protein, Sf9 (Spodoptera frugiperda 9) insect cells are routinely maintained at densities between 3 X 10^5 and 3 X 10^6 cells/ml in serum containing TNMFH medium (Sigma). Sf9 cells, at a density of 2 X 10^6 are infected with human GST-P13KγΔ34 baculovirus at a multiplicity of infection (m.o.i.) of 1 for 72 hours. The infected cells are harvested by centrifugation at 1400 g for 4 minutes at 4° C and the cell pellets are frozen at -80° C. […] The unbound flow through sample is collected by centrifugation at 1000g for 5 minutes at 4° C using a DENLEY™ centrifuge. The 1 ml GST resin containing bound material is transferred to a 15 ml FALCON™ centrifuge tube for subsequent washing and elution steps. Firstly a series of 3 cycles of washings (mixing by gentle inversion) is performed with 15 ml ice cold wash Buffer A (50 mM Tris-HCl pH 7.5, 1 % Triton X-100, 2 mM DTT) interspersed with centrifugation at 1000g for 5 minutes at 4° C. A final single wash step is performed with 15 ml ice cold wash Buffer B (50mM Tris-HCl pH 7.5, 2 mM DTT) and then centrifuged at 1000g for 5 minutes at 4° C. The washed GST resin is finally eluted with 4 cycles of 1 ml ice cold elution buffer (50 mM Tris-HCl pH 7.5, 10 mM reduced glutathione, 2 mM DTT, 150 mM NaCl, 1 mM NaF, 50% ethylene glycol and protease inhibitors) interspersed with centrifugation at 1000g for 5 minutes at 4° C.. Samples are aliquoted and stored at -20° C.
An in vitro kinase assay was established that measures the transfer of the terminal phosphate of adenosine triphosphate to phosphatidylinositol. The kinase reaction is performed in a white 96 well microtitre plate as a Scintillation Proximity Assay. […] The reaction is started by the addition of 20 µl of enzyme mix (40 mM Tris, 200 mM NaCl, 2 mM EGTA containing recombinant GST-p110y).
Compound `CCc1cnc(CCNC(=O)Nc2nc(C)c(-c3ccc(S(C)(=O)=O)c(F)c3)s2)o1` [Example 178] has an IC50 of 40 nM. In the case of `Cc1nc(NC(N)=O)sc1-c1ccc(Cl)c(S(C)(=O)=O)c1` [Example 138, [5-(4-chloro-3-methanesulfonyl-phenyl)-4-methyl-thiazol-2-yl]-urea], the IC50 is reported as 5 nM. `CC(=O)Nc1nc(C)c(-c2ccc(Cl)c(S(C)(=O)=O)c2)s1` [Example 48, N-[5-(4-Chloro-3-methanesulfonyl-phenyl)-4-methyl-thiazol-2-yl]-acetamide] was tested, and the IC50 was 18 nM. With `CCOC(=O)CCNC(=O)Nc1nc(C)c(-c2ccc(S(C)(=O)=O)c(F)c2)s1` [Example 165, 3-{3-[5-(3-Fluoro-4-methanesulfonyl-phenyl)-4-met4l-thiazol-2-yl]-ureido}-propionic acid ethyl ester] the IC50 was 19 nM. Work on `CC(=O)Nc1nc(C)c(-c2cc(Br)c(S(N)(=O)=O)c(Br)c2)s1` [Example 8, N-[5-(3.5-Dibromo-4-sulfamoyl-phenyl)-4-methyl-thiazol-2-yl]-acetamide] yielded an IC50 of 9 nM. Compound `CC(=O)Nc1nc(C)c(-c2ccc(S(C)(=O)=O)c(-n3ccnc3)c2)s1` [Example 80, N-[5-(3-Imidazol-1-yl-4-methanesulfonyl-phenyl)-4-methyl-thiazol-2-yl]-acetamide] has an IC50 of 13 nM.

Reference: patent publication EP2311818B1, “Combination of a 5-phenylthiazole compound as PI3 kinase inhibitor with an antiinflammatory, bronchodilatory or antihistamine drug” (Novartis AG, priority 2003, dated 2003)
